Where “and” joins values, the source holds several entries; their conditions need not be identical. Equal entries are not always repeated. Structures can show the parent of a compound that is named as a salt. Where two headings read alike, the source gives them in different places.
How the values were obtained:
PAF receptor = target: T1, PAF receptor (Oryctolagus cuniculus, UniProt G1TEI7); experiment: Inhibition of PAF induced platelet aggregation in rabbit platelet rich plasma; format: cell-based, rabbit (New Zealand White); conditions: for inhibition at 10 µM: dose .00001 M
T1 construct: centrifuged at 800 rpm for 10-15 minutes at room temperature to recover the platelet rich plasma (PRP); from tissue; host or cells: platelets in platelet rich plasma from blood of male New Zealand White rabbits
T1 sequence (G1TEI7 1-342): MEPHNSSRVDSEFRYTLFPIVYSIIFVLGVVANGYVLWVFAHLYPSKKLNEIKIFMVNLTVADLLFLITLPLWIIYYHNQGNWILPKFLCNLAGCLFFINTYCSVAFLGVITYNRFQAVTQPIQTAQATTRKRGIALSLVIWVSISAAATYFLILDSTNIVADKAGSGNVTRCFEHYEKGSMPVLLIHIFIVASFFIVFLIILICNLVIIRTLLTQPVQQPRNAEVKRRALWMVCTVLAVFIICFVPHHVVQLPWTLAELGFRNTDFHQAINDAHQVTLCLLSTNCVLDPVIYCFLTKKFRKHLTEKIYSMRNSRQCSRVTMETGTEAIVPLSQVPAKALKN
Protocol: Test compounds are evaluated as PAF receptor antagonists in vitro by measuring inhibition of PAF (platelet activating factor) induced platelet aggregation. Platelet aggregation is measured by a modification of the method described in […], et. al., J. Med. Chem., 27 1174, 1984. […] All syringes and pipets are plastic. The blood is gently mixed and immediately centrifuged at 800 rpm for 10-15 minutes at room temperature to recover the platelet rich plasma (PRP). Platelet poor plasma (PPP) is prepared by centrifuging PRP at 2800 rpm for 10 minutes at room temperature. Dilutions (1:3000) of PRP in Isotone diluent are made and platelet counts are determined on a Coulter Thrombocounter which is standardized with platelet reference standards (Interscience Platelet Control, Portland, Oreg.). PRP platelet counts are adjusted to approximately 400,000-500,000 platelets/μl by the addition of PPP. L-PAF (Platelet Activating Factor) is obtained from Calbiochem. […] All solutions are made up in plastic tubes, stored on ice and protected from heat and light. Solutions are prepared fresh or frozen at -20° C. and used within 48 hours. Incubation mixtures consisted of 400 μl PRP, 50 μl of saline diluent or test compound and 50 μl of PAF agonist. More specifically, 400μl of PRP is stabilized in a cuvette for 1-2 minutes at 37° C. in the aggregometer to achieve a stable baseline, then 50 μl of saline or test compound is added and incubated for 5 minutes before addition of the challenge concentration of pAF. A submaximal concentration is determined from the dose response curve for PAF for that experiment. In general, the challenge concentration is 5E-8 or 1E-7M. Aggregation is monitored for 5 minutes. Samples containing test compound or diluent are run simultaneously for comparison. Test compounds are initially evaluated at a screening concentration of 1E-5M. […] The recording equipment consists of a dual channel Chronolog aggregometer connected to a dual channel 10MV full scale deflection Omniscribe chart recorder (Houston Instruments). The chart recorder is calibrated daily with the use of a suspension of Bio-Rad latex beads (S-X 12 400 mesh) which has a density slightly greater than rabbit PRP. […] These limits defined a full scale deflection. The aggregation traces are analyzed by a digitizing method (C. Kohler and B. Zoltan, J. Pharm. Methods, 12, 113, 1984) with x, y coordinate data stored in a computer file. A suitable program computes parameters of interest such as the magnitude of aggregation.

PAF = PAF induced lethality in mice; format: in vivo; conditions: PAF 150 μg/kg IV
Protocol: PAF given I.V. to mice causes an immediate hypotensive shock leading to death in 1 hour or less. […] Animals alive after 2 hours are counted and the activity of test compounds expressed as % survival corrected for any control (saline treated) animals which survived the PAF challenge.

LPS endotoxin = experiment: Low dose, chronic mouse endotoxemia (LPS endotoxin); format: in vivo, Male Balb/c mice; conditions: day 6, LPS 20 mg/kg i.p.
Description: Endotoxin administration produces a shock-like state characterized by vascular permeability changes, hypotension, neutropenia, thrombocytopenia,multiple organ damage and death. The major mediators released after endotoxin injection are TNF (tumor necrosis factor), PAF (platelet activating factor) and […] (interleukin I). PAF administration mimics the signs and symptoms of endotoxin induced shock and death and endotoxin also induces the release of PAF. Therefore, the effects of endotoxin should be blocked with a PAF antagonist.
Male Balb/c mice (approximately 20 g) are obtained from Charles River Laboratories and used after a one-two week acclimation period. Animals are given (ip) test compound dissolved in saline or water (sonicated and heated) at different time intervals prior to and after the ip injection of endotoxin (usually 2 hours before LPS endotoxin, and 3-4 hours after). Sigma E. Coli endotoxin, 0111:B4, phenol extraction, catalog #L2630 is used for these studies.
For the chronic endotoxin shock model, a lower dose of endotoxin is administered (generally 15 to 20 mg/kg i.p). This dose gives an LD80 in two to four days following LPS administration. Test compounds are given 2 hours before LPS and 3-4 hours after on the first day, followed by 3 or 4 consecutive days of BID dosing. The number of survivors in each group is recorded each day for a period of 5 to 7 days.
All mice challenged with LPS endotoxin = 20 mg/kg i.p.
CL test cpd given 2 hours before and 3-4 hours after LPS challenge on day
0, followed by BID dosing for 3-4 days.

[1] = PAF challenge 5.0000E-08 M, read-out: % INH of PAF induced platelet aggregation
[2] = PAF challenge 1.0000E-08 M, read-out: % INH of PAF induced platelet aggregation
[3] = PAF challenge .0000005 M, read-out: % INH of PAF induced platelet aggregation
[4] = PAF challenge 5E-9 M, read-out: % INH of PAF induced platelet aggregation

With `CCCCCCCCCCCCCCOc1ccc(CN(C(C)=O)c2ccc(C[n+]3csc(C)c3)cc2)cc1` [3-[[4-[acetyl[[4-(tetradecyloxy)phenyl]methyl]amino]phenyl]methyl]-5-methyl-thiazolium bromide] the IC50 (PAF receptor; PAF challenge 5.0000E-08 M) was 2.1 µM and the inhibition at 0.1 µM (PAF receptor; dose .0000001 M, PAF challenge 5.0000E-08 M, read-out: % INH of PAF induced platelet aggregation) was 84%.
For `CCCCCCCCCCCCCCOc1ccc(CN(C(C)=O)c2cccc(C[n+]3csc(C)c3)c2)cc1.[Br-]` [3-[[3-[Acetyl[[4-(tetradecyloxy)phenyl]methyl]amino]phenyl]methyl]-5-methylthiazolium bromide], the inhibition at 10 µM (PAF receptor; [1]) was 98%, the “% Survival” value (PAF; 1 mg/kg I.V.) was 83% and the “% Survival” value (PAF; 5 mg/kg P.O.) was 52%. For the same molecule, the “% Survival” value (PAF; 10 mg/kg P.O.) was 75%, the “% Survival” value (PAF; 20 mg/kg P.O.) was 75% and the “% Survival” value (PAF; .25 mg/kg I.V.) was 100%. For the same molecule, the “% Survival” value (PAF; .5 mg/kg I.V.) was 83%.
With `CCCCCCCCCCCCCCCCOc1ccc(OCC(=O)Nc2ccccc2C[n+]2csc(C)c2)cc1` [3-[[2-[[[4-(Hexadecyloxy)phenoxy]acetyl]amino]phenyl]methyl]-5-methyl-thiazolium bromide] the IC50 (PAF receptor; PAF challenge 1.0000E-08 M) was 11.2 µM, the IC50 (PAF receptor; PAF challenge .0000005 M) was 3.8 µM and the inhibition at 10 µM (PAF receptor; [2]) was 60%. It also gave an inhibition at 10 µM (PAF receptor; [3]) of 83%.
`CCCCCCCCCCCCCCOc1ccc(CC(=O)Nc2cccc(C[n+]3ccn4ccccc43)c2)cc1` was tested, and the IC50 (PAF receptor; PAF challenge 5.0000E-08 M) was 1.5 µM and the inhibition at 10 µM (PAF receptor; [1]) was 91%.
With `CCCCCCCCCCCCCCOc1ccc(CC(=O)Nc2ccc(C[n+]3csc(C)c3)cc2)cc1.[Br-]` [5-methyl-3-[[4-[[[4-(tetradecyloxy)phenyl]acetyl]amino]phenyl]methyl]-thiazolium bromide] the IC50 (PAF receptor; PAF challenge 5.0000E-08 M) was 0.18 µM and 0.32 µM and 1.3 µM, the inhibition at 10 µM (PAF receptor; [1]) was 92% and the “% Survival” value (PAF; 5 mg/kg P.O.) was 32%. The “% Survival” value (PAF; 20 mg/kg P.O.) was 32%.
For `CCCCCCCCCCCCCCOc1ccc(CC(=O)Nc2cccc(-n3ccnc3C)c2)cc1` [N-[3-(2-methyl-1H-imidazol-1-yl)phenyl]-4-(tetradecyloxy)-benzeneacetamide monohydrochloride], the IC50 (PAF receptor; PAF challenge 5.0000E-08 M) was 18.6 µM and the inhibition at 10 µM (PAF receptor; [1]) was 34%.
`CCCCCCCCCCCCCCOc1ccc(C(=O)Nc2cccc(C[n+]3csc(C)c3)c2)cc1` [5-Methyl-3-[[3-[[4-(tetradecyloxy)benzoyl]amino]phenyl]methyl]thiazolium bromide] gave an IC50 (PAF receptor; PAF challenge 5.0000E-08 M) of 5.97 µM and an inhibition at 10 µM (PAF receptor; [1]) of 54%.
For `CCCCCCCCCCCCCCOc1ccc(CCN(C(C)=O)c2cccc(C[n+]3csc(C)c3)c2)cc1` [3-[[3-[Acetyl[2-[4-(tetradecyloxy)phenyl]ethyl]amino]phenyl]methyl]-5-methyl-thiazolium bromide], the IC50 (PAF receptor; PAF challenge 8.0000E-09 M) was 2.91 µM, the IC50 (PAF receptor; PAF challenge .0000005 M) was 4.3 µM and the inhibition at 10 µM (PAF receptor; PAF challenge 8.0000E-09 M, read-out: % INH of PAF induced platelet aggregation) was 85%. The inhibition at 10 µM (PAF receptor; [3]) was 69%.
For `CCCCCCCCCCCCCCOc1ccc(CC(=O)Nc2cccc(-c3scc[n+]3C)c2)cc1` [3-Methyl-2-[3-[[[4-(tetradecyloxy)phenyl]acetyl]amino]phenyl]thiazolium chloride], the IC50 (PAF receptor; PAF challenge 5.0000E-08 M) was 12 µM and the inhibition at 10 µM (PAF receptor; [1]) was 46%.
`CCCCCCCCCCCCCCOc1ccc(NC(=O)Nc2cccc(C[n+]3csc(C)c3)c2)cc1` [5-Methyl-3-[[3-[[[[4-(tetradecyloxy)phenyl]amino]carbonyl]amino]phenyl]methyl]thiazolium bromide] was tested, and the IC50 (PAF receptor; PAF challenge 5.0000E-08 M) was 1.5 µM, the IC50 (PAF receptor; PAF challenge .0000001 M) was 16.9 µM and the inhibition at 10 µM (PAF receptor; [1]) was 92%. The inhibition at 50 µM (PAF receptor; dose .00005 M, PAF challenge .0000001 M, read-out: % INH of PAF induced platelet aggregation) was 80%.
`CCCCCCCCCCCCCCOc1ccc(CN(C(=O)NC)c2cccc(C[n+]3csc(C)c3)c2)cc1.[Br-]` [5-methyl-3-[[3-[[(methylamino)carbonyl]-[[4-(tetradecyloxy)phenyl]methyl]amino]phenyl]methyl]-thiazolium bromide] showed an IC50 (PAF receptor; PAF challenge 5.0000E-08 M) of 0.46 µM, an IC50 (PAF receptor; PAF challenge .0000001 M) of 1.09 µM and an inhibition at 10 µM (PAF receptor; [1]) of 90%. The inhibition at 10 µM (PAF receptor; PAF challenge .0000001 M, read-out: % INH of PAF induced platelet aggregation) was 95%, the “% Survival” value (LPS endotoxin; dose 10 mg/kg i.p.) was 46% and the “% Survival” value (LPS endotoxin; dose 20 mg/kg i.p.) was 20%.
`CCCCCCCCCCCCCCOc1ccc(CC(=O)Nc2cccc(C[n+]3ccsc3)c2)cc1.[Br-]` [3-[[3-[[[4-(tetradecyloxy)phenyl]acetyl]amino]phenyl]methyl]thiazolium bromide] showed an IC50 (PAF receptor; PAF challenge 5E-9 M) of 0.12 µM, an inhibition at 2.5 µM (PAF receptor; dose .0000025 M, PAF challenge 5.0000E-08 M, read-out: % INH of PAF induced platelet aggregation) of 97% and an inhibition at 10 µM (PAF receptor; [1]) of 100%. For the same molecule, the inhibition at 10 µM (PAF receptor; [4]) was 98%, the “% Survival” value (PAF; 40 mg/kg P.O.) was 40% and the “% Survival” value (LPS endotoxin; dose 10 mg/kg i.p.) was 63%. For the same molecule, the “% Survival” value (LPS endotoxin; dose 20 mg/kg i.p.) was 40%.
With `CCCCCCCCCCCCCCOc1ccc(CC(=O)Nc2ccc(-n3cc[n+](C)c3C)cc2)cc1` [2,3-dimethyl-1-[4-[[[4-(tetradecyloxy)phenyl]acetyl]amino]phenyl]1H-imidazolium iodide] the IC50 (PAF receptor; PAF challenge 5.0000E-08 M) was 4.51 µM and the inhibition at 10 µM (PAF receptor; [1]) was 62%.
With `CCCCCCCCCCCCCCCCOc1ccc(OCC(=O)Nc2cccc(C[n+]3csc(C)c3)c2)cc1` [3-[[3-[[[4-(Hexadecyloxy)phenoxy]acetyl]amino]phenyl]methyl]-5-methyl-thiazolium bromide] the IC50 (PAF receptor; PAF challenge 1.0000E-08 M) was 4.4 µM, the IC50 (PAF receptor; PAF challenge 5.0000E-08 M) was 5 µM and the inhibition at 10 µM (PAF receptor; [2]) was 93%. It also gave an inhibition at 10 µM (PAF receptor; [1]) of 72%.
In the case of `CCCCCCCCCCCCCCOc1ccc(CC(=O)Nc2cccc(-n3cc[n+](C)c3C)c2)cc1` [2,3-dimethyl-1-[3-[[[4-(tetradecyloxy)phenyl]acetyl]amino]phenyl]1H-imidazolium iodide], the IC50 (PAF receptor; PAF challenge 5.0000E-08 M) is reported as 2.47 µM and the inhibition at 10 µM (PAF receptor; [1]) is reported as 80%.
Molecule `CCCCCCCCCCCCCCOc1ccc(CC(=O)Nc2cccc(C[n+]3cc(C)cc(C)c3)c2)cc1` [3,5-Dimethyl-1-[[3-[[[4-(tetradecyloxy)phenyl]acetyl]amino]phenyl]methyl]pyridinium bromide] has an inhibition at 10 µM (PAF receptor; [1]) of 84%.
`CCCCCCCCCCCCCCOc1cccc(CC(=O)Nc2ccccc2C[n+]2csc(C)c2)c1` [5-Methyl-3-[[2-[[[3-(tetradecyloxy)phenyl]acetyl]amino]phenyl]methyl]thiazolium bromide] was tested, and the IC50 (PAF receptor; PAF challenge 5E-9 M) was 34 µM, the inhibition at 10 µM (PAF receptor; [1]) was 23% and the inhibition at 10 µM (PAF receptor; [4]) was 27%.
In the case of `CCCCCCCCCCCCCCOc1ccc(CN(C(C)=O)c2cccc(C[n+]3ccc(C)c(C)c3)c2)cc1` [1-[[3-[acetyl[[4-(tetradecyloxy)phenyl]methyl]amino]phenyl]methyl]-3,4-dimethyl-pyridinium bromide], the IC50 (PAF receptor; PAF challenge 5.0000E-08 M) is reported as 12 µM and the inhibition at 10 µM (PAF receptor; [1]) is reported as 52%.
`CCCCCCCCCCCCCCOc1ccc(NC(=O)c2cccc(C[n+]3csc(C)c3)c2)cc1` [5-Methyl-3-[[3-[[[4-(tetradecyloxy)phenyl]amino]carbonyl]phenyl]methyl]thiazolium bromide] gave an IC50 (PAF receptor; PAF challenge 5.0000E-08 M) of 2.7 µM and an inhibition at 10 µM (PAF receptor; [1]) of 89%.
